This note sets out measurements from ChEMBL document CHEMBL1201862, “PubChem BioAssay data set” (2004).

For one assay, the target named is Cytochrome P450 2C19 (Homo sapiens, UniProt P33261). Put plainly: Cytochrome panel assay with activity outcomes. Panel member name: p450-cyp2c19 Compounds with AC50 equal or less than 10 uM are considered active. It counts as functional. The following applies: read-out: AC50.
Assay [1] in a line: HIV-1 Vif–A3G interaction blockers – biochemical, TR-FRET, GST-Vif 1-94, biotin-A3G peptide, dose response retest, primary screen (AID 1117319).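 Also: TR-FRET signal of purified GST-Vif binding a biotinylated A3G peptide; inhibitors lower the FRET signal by blocking Vif and A3G binding.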 The class given is functional. Background: TR-FRET usually uses a lanthanide donor and a delayed reading to cut background.
For a further assay, the target named is Cytochrome P450 2C9 (Homo sapiens, UniProt P11712).
The nature of assay [2]: viability inhibitors of stage V gametocytes – luminescence, dose response (AID 1117278).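 Also: gametocytes exposed to compound for 24 hours.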 It counts as functional, cell-based.
Assay [3] can be described thus: viability loss in human Jurkat cells – cell-based, luminescence, cytotoxicity control for P. falciparum gametocyte viability project, dose response (AID 1117277).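 Also: potency reflects loss of cellular ATP meaning fewer viable cells.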 The class given is functional.
In assay [4] the target is E3 ubiquitin-protein ligase Mdm2 (Homo sapiens, UniProt Q00987). As to the kind of experiment: MDM2-luc reporter signal enhancers, multi-concentration potency testing, MDM2 ubiquitin-protein ligase inhibitor program, whole-cell format, luminescence detection, 384-well microplate (AID 1394).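 Also: MDM2 E3 inhibitors raise luminescence so EC50 is for signal enhancement.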 The class given is functional.
Assay [5] deals with Bifunctional protein GlmU (Mycobacterium tuberculosis, UniProt P9WMN3). Put plainly: Inhibitors of Mycobacterial Glucosamine-1-phosphate acetyl transferase (GlmU). Secondary screen. Set-up: species or system Mycobacterium tuberculosis H37Rv.
In a further assay the target is T1, Protein skinhead-1 (Caenorhabditis elegans, UniProt P34707).
T1 sequence (P34707 whole entry): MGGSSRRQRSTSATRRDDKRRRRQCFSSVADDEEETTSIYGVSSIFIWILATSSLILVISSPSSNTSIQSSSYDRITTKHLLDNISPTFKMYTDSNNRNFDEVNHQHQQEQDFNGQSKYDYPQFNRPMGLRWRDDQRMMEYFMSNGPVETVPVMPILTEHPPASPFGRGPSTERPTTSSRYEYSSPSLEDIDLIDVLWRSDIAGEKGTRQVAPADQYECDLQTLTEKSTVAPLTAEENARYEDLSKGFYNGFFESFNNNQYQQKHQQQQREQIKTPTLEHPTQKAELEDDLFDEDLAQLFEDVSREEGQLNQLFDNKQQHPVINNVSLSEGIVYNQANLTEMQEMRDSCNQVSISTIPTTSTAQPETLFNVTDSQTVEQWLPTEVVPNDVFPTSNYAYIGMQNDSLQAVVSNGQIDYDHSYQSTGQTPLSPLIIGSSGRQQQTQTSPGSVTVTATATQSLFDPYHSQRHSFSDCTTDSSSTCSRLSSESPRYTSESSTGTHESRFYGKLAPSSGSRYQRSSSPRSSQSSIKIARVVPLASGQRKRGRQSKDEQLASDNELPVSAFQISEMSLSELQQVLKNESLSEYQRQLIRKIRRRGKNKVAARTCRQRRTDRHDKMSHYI
The class given is functional.

The target of another assay is NADPH oxidase 1 (Homo sapiens, UniProt Q9Y5S8). Put plainly: Late stage results from the probe development effort to identify inhibitors of NOX1: HEK/293 IC50. [Related pubchem assays: 1796 (Summary AID (NOX1)), 2752 (Primary screen (NOX1 inhibitors, synthesized analogs set 2)), 2664 (Primary screen (NOX1 inhibitors, synthesized analogs)), 1792 (Primary Screen (NOX1)), 2545 (Confirmation screen (NOX1 …. It counts as functional.

The target in assay [6] is E3 ubiquitin-protein ligase UHRF1 (Homo sapiens, UniProt Q96T88). As to the kind of experiment: Counterscreen for inhibitors of 5-meCpG-binding domain protein 2 (MBD2): TRFRET-based biochemical high throughput dose response assay to identify inhibitors of binding of ubiquitin-like with PHD and ring finger domains 1 (UHRF1) to methylated oligonucleotide. A general note: A counterscreen serves to expose hits that act by an unwanted route or on another target.

In assay [7] the target is NAD-dependent protein deacylase sirtuin-5, mitochondrial (Homo sapiens, UniProt Q9NXA8). As to the kind of experiment: sirtuin-5 deacylation blockers, concentration series – biochemical, fluorescence imaging, cherry-pick, set 5, dose response (AID 720591).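 Also: desuccinylation of succinyl peptide AMC substrate read as fluorescence after trypsin release; potency of inhibitors that lower fluorescence and may act on trypsin instead.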
Assay [8] has as its target T2, Tyrosine-protein phosphatase non-receptor type 7 (Homo sapiens, UniProt P35236).
T2 sequence (P35236 whole entry): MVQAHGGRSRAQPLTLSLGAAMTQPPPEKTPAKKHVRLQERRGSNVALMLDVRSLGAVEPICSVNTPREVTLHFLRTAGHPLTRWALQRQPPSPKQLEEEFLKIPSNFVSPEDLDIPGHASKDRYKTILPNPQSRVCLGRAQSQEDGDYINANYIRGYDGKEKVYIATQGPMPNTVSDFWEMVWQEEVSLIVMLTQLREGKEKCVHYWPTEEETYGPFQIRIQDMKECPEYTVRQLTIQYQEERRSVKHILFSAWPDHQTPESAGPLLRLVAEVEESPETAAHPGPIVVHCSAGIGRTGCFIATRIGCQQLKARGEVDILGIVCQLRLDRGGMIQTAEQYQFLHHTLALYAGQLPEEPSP
Put plainly: HePTP tyrosine phosphatase activity blockers – biochemical, absorbance, leukemia target, primary screen (AID 521). It counts as functional.

The structures appear in SMILES notation. Calls of active or inactive are those of the source. Some results are limits rather than exact numbers.

Chain of NADPH oxidase 1 (Q9Y5S8 whole entry): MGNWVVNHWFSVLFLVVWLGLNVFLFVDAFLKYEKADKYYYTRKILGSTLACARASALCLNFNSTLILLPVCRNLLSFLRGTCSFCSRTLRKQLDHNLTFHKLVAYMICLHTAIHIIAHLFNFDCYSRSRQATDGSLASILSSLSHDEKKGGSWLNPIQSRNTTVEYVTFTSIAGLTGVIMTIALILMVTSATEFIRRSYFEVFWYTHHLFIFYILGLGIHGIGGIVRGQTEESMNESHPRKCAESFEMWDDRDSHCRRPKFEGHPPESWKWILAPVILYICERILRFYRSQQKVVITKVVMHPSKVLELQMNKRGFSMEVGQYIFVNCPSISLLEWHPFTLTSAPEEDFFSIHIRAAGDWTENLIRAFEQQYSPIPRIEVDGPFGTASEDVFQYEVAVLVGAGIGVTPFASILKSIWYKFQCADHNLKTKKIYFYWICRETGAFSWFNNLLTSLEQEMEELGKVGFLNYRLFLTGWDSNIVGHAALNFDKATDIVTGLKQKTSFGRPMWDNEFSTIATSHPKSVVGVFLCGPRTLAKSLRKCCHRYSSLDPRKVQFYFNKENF
Chain of E3 ubiquitin-protein ligase Mdm2 (Q00987 whole entry): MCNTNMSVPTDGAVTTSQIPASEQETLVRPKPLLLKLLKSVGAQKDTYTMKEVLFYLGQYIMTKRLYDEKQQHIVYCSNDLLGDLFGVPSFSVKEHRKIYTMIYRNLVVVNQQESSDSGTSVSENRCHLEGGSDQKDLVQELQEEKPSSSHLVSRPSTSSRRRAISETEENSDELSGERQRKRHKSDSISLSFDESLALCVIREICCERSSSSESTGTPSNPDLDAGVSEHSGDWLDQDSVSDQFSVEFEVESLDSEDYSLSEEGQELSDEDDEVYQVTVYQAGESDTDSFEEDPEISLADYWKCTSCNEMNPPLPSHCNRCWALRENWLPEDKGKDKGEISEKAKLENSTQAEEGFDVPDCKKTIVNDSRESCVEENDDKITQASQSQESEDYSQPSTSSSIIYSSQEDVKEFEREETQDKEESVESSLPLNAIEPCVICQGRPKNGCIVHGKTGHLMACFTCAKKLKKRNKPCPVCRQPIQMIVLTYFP
Chain of Cytochrome P450 2C9 (P11712 whole entry): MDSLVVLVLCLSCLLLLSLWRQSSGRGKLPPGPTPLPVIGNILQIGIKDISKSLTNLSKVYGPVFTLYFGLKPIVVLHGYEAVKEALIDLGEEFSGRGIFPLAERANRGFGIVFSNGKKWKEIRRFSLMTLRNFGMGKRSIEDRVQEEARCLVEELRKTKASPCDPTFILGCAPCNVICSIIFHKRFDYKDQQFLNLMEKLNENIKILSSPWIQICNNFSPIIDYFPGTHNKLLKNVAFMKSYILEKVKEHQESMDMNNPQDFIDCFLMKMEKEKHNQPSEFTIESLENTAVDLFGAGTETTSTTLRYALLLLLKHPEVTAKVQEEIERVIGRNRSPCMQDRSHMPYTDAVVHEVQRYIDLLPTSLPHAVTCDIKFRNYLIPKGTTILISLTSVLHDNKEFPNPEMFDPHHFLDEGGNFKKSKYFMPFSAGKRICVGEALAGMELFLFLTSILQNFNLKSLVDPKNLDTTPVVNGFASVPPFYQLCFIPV
Chain of Bifunctional protein GlmU (P9WMN3 whole entry): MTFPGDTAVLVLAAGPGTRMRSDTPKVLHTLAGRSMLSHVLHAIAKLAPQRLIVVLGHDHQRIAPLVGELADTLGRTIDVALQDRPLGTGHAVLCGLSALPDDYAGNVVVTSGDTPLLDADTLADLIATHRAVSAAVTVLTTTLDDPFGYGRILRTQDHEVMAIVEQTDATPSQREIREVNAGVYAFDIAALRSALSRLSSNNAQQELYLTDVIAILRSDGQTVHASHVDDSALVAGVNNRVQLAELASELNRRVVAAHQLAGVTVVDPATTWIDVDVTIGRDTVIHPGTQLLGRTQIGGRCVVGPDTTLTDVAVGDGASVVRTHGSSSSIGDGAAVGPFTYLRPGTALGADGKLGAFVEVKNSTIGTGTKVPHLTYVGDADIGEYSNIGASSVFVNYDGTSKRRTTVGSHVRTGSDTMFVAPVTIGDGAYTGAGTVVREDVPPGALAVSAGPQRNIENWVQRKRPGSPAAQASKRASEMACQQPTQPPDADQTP
Chain of NAD-dependent protein deacylase sirtuin-5, mitochondrial (Q9NXA8 whole entry): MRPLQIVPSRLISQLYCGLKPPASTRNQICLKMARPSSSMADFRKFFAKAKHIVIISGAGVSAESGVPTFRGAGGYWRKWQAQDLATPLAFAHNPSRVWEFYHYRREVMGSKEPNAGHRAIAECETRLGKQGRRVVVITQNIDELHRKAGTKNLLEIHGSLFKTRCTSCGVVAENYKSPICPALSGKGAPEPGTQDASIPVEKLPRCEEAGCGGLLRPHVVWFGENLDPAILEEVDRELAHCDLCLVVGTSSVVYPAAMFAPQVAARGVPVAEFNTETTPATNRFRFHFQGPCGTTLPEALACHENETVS
Chain of E3 ubiquitin-protein ligase UHRF1 (Q96T88 whole entry, the tested form may be a part): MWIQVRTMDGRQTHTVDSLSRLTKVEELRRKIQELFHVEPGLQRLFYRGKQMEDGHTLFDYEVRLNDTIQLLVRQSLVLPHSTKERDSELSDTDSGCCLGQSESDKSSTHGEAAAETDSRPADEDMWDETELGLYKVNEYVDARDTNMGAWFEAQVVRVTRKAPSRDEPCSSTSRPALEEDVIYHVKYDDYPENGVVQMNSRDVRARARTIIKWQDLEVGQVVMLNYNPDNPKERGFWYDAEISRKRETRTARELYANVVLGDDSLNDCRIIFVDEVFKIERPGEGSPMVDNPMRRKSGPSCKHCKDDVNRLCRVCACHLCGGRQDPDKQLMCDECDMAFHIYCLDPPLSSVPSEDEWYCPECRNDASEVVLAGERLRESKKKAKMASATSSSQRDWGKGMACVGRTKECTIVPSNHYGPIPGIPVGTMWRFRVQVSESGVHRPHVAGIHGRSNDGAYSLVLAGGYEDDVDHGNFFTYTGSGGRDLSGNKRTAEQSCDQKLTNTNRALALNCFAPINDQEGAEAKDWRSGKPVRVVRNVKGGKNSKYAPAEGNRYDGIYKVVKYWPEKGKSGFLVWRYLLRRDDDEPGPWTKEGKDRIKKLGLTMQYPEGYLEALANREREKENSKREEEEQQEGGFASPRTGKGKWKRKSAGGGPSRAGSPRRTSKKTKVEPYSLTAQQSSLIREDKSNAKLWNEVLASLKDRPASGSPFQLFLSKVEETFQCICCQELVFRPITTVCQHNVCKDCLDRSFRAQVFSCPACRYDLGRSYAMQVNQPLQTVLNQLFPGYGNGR
Chain of Cytochrome P450 2C19 (P33261 whole entry): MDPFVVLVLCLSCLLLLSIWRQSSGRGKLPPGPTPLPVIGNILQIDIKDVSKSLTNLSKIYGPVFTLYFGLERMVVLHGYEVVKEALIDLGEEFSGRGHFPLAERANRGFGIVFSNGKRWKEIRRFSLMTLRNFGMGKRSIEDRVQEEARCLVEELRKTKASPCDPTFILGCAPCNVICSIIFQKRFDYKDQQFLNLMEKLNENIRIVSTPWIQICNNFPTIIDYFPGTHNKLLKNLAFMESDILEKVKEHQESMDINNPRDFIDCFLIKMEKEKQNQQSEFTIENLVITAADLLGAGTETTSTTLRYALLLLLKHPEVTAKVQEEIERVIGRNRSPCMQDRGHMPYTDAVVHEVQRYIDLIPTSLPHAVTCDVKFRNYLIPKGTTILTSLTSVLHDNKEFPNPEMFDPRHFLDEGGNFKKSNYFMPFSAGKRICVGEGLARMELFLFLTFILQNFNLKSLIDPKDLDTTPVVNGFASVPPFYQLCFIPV

In general, AC50 refers to the concentration giving half of the maximal activity seen. Broadly, the IC50 is the concentration that inhibits the measured activity by half. Regarding `COC(=O)[C@@]1(Cc2ccc(OC)cc2)[C@H]2c3cc(C(=O)N(C)C)n(C[C@H](O)CO)c3C[C@H]2CN1C(=O)c1ccccc1`, the AC50 at Cytochrome P450 2C19 and at Cytochrome P450 2C9 was 31.6 µM (inconclusive) in each case. Besides, the half-inhibitory concentration (IC50) in assay [1] is > 100 µM (active).

Take `C=CCn1c(SCC(=O)NCc2ccc3c(c2)OCO3)nc2scc(-c3ccc(F)cc3)c2c1=O`: the IC50 was > 109 µM (inactive) in assay [2] and 68.6 µM (inactive) in assay [3].

Broadly, the EC50 is the concentration giving half of the maximal effect. Turning to `CCN(CC)c1ccc(/C=C2/C(=O)c3ccc(C(=O)O)cc3C2=O)cc1`, in assay [4], the EC50 was 0.07 µM (active). In addition, the figures for the IC50 (in [5]; at Protein skinhead-1) were 34.3 µM (active) and 20.9 µM (active), respectively.

On to `O=C(Oc1ccccc1N1CCCCC1)c1sc2ccccc2c1Cl`, for which the half-inhibitory concentration (IC50) on NADPH oxidase 1 is 2.31 µM (active).

As for `OCCCNCc1cccc2ccccc12`, the IC50 in assay [6] was > 43.9 µM (inactive).

`COc1ccc(OC)c(NC(=O)C2CCN(C(=O)c3cccs3)CC2)c1`: the concentration at half-maximal activity (AC50) in [7] was 26.6 µM (active).

In the case of `Cc1c(C(=O)N2CCOCC2)[nH]c2ccc(OCc3ccccc3)cc12`, in assay [8], the concentration for half-maximal inhibition (IC50) was > 100 µM (not active).
